Assay results taken from paper PMC4154066 (Chemical research in toxicology, 2013).

Assays:
HepG2 cells [1] = assay: Oxygen consumption rate; type: cell-based, Human; conditions: for Relative percentage OCR 30 Sec: HepG2, 30 sec after compound at its MMP IC50; for Relative percentage OCR 30 Sec / Relative percentage OCR 1 h: basal OCR = 100%, mean ± SD; for Relative percentage OCR 1 h: HepG2, 1 h after compound at its MMP IC50; for Effect on OCR / FCCP-uncoupled OCR (in words): HepG2, compound at its MMP IC50, 30 sec and 1 h, then FCCP
caspase 9 = conditions: HepG2, 5 h; cited from earlier work
HepG2 cells [2] = assay: cells; type: cell-based, Human
caspase 3/7 = conditions: HepG2, 16 h; cited from earlier work
[3] = tested on: mitochondrial membrane potential in HepG2 cells; assay: MMP assay, powder compound confirmation, fluorescence plate reader; type: cell-based, Human

SMILES: CN(C)c1ccc(C(=C2C=CC(=[N+](C)C)C=C2)c2ccc(N(C)C)cc2)cc1 [Hexamethyl-p-rosaniline chloride]
- Relative percentage OCR 30 Sec (HepG2 cells [1]): 132.56 ± 3.88%
- Relative percentage OCR 1 h (HepG2 cells [1]): 105.01 ± 1.65%
- Effect on OCR / FCCP-uncoupled OCR (in words) (HepG2 cells [1]): immediate uncoupling
- activation of caspase 9 (caspase 9): seems to activate caspase 9
- Compound potency (IC50) LDH Release 1 h (HepG2 cells [2]; HepG2, 1 h treatment, mean ± SD, 3 independent experiments): Inconclusive
- Compound potency (IC50) LDH Release 5 h (HepG2 cells [2]; HepG2, 5 h treatment, mean ± SD, 3 independent experiments): cytotoxic
- IC50 (HepG2 cells [2]; Homo sapiens, HepG2, 5 h, read-out: Compound potency (IC50) LDH Release 5 h): 56.1 µM
- induction of caspase 3/7 (caspase 3/7): induced caspase 3/7

SMILES: COc1cc(C2Oc3cc([C@H]4Oc5cc(O)cc(O)c5C(=O)[C@@H]4O)ccc3OC2CO)ccc1O (stereo partly shown) [Silibinin]
- Compound potency (IC50) Fluorescence readout 5 h ([3]; HepG2, powder compound confirmation, 5 h, mean ± SD, 4 independent experiments): weakly active
- Emax ([3]; Homo sapiens, HepG2, 5 h, read-out: efficacy (maximal response)): 38.1%
- Relative percentage OCR 30 Sec (HepG2 cells [1]): 92.67 ± 0.69%
- Relative percentage OCR 1 h (HepG2 cells [1]): 95.66 ± 0.46%
- Effect on OCR / FCCP-uncoupled OCR (in words) (HepG2 cells [1]): significantly suppressed the FCCP uncoupled rates
